In patent US11980602B2, “Cannabinoid prodrug compounds” (Firstlight Pharmaceuticals LLC, priority 2019, dated 2024):

How the values were obtained:
[1] = low, dose dependent; cited from earlier work
[2] = tested on: NCIH727 (lung) tumor cells; assay: CELLTITER-GLO cell viability assay, H727; assay type: cell-based, human
Experimental: (§1) CELLTITER-GLO® Cell Viability Assay (a homogeneous method of determining the number of viable cells in culture based on quantitation of the ATP present, an indicator of metabolically active cells)
(§2) MKN1 (gastric), PC3 (prostate), NCIH727 (lung), and HCT116 (colorectal) tumor cell lines; Control=0.1% DMSO
(§3) To prepare 10 mM FL41 stock from powder dissolve 4.1 mg of FL41 powder into 0.74 ml DMSO-aliquot and store at −20 C until use DMSO-stock from Sigma or other suitable vendor-must be reagent or ACS grade or better.
(§4) Place 5000 cells per well (200 ul) in duplicate in their preferred media as shown in 96-well plate diagram immediately below. Reduce the final FBS (serum) concentration to 5% before adding cells to media. Incubate cells overnight and then remove old media carefully and add fresh media with 5% FBS and then either add DMSO alone, COMPOUND A alone or in combination with GEM (gemcitabine) in wells where noted at the final concentrations noted. Incubate the cells at 37 C in CO2 incubator for an additional 72 hours in presence of compounds. At the end of the 72-hour period add Promega Titerglo reagent to the wells and then measure luminescence to assess relative cell number.

[3] = tested on: HCT116 (colorectal) tumor cells; assay: CELLTITER-GLO cell viability assay, HCT116; assay type: cell-based, human; details: COMPOUND A alone, 72 hours, 5% FBS (FIG. 6)
Experimental: as §1, §2, §3, §4

[4] = tested on: HPAF-II (pancreatic) tumor cells; assay: MTT cell viability assay with HPAF-II pancreatic tumor cells; assay type: cell-based, human
Experimental: MTT Cell Viability Assay with HPAF-II (Pancreatic) Tumor Cells—
10 mM of COMPOUND A stock solution was made by dissolving the 8.2 mg of powder form of COMPOUND A in 1.468 mL of DMSO to form the stock solution. The stock solution was aliquoted to 0.6 mL microcentrifuge tubes with 20 μl of solution in each microcentrifuge tube.
Pancreatic cancer cell line HPAF-II was seeded in a 96-well plate with 5000 cells/well and incubated overnight at 37° C. The next day, cells were treated triplicate by removing cell media and replaced with fresh media containing COMPOUND A alone at increasing concentrations (10 μM, 20 μM, 20 μM, 50 μM, 75 μM, 100 μM 125 μM 150 μM, 175 μM 200 μM) as well as the combination of the 10 μM of COMPOUND A and Gemcitabine at increasing concentrations (0 μM, 0.01 μM, 0.05 μM, 0.1 μM, 0.5 μM, 1 μM, 5 μM, 10 μM). Drug vehicle (DMSO, Sigma) was used as a control for the treatment. Cells were then left to grow in the presence of the drugs for the following 72 hours.
After 72 hours, the media was discarded and the cells were incubated with MTT (3-(4,5-Dimethylthiazol-2-yl)-2,5-diphenyltetrazolim bromide) solution (5 mg/ml stock) at working concentration of 0.5 mg/ml in fresh cell growth media for 2 hours at 37° C. The reaction was stopped when the majority of the cells was stained. MTT solution was then aspirated and the plate was left to dry for several hour. Stained cells were then resuspended in 70 μl of DMSO and mixed well. The absorbance was read with the use of a plate reading spectrophotometer at the 570 nm. The CompuSyn data for the drug combination of COMPOUND A and Gemcitabine in each cell line was generated and analysed using the CompuSyn software which was set up by […] and published by ComboSyn, Inc.

[5] = tested on: phospho-ERK; assay: Western blot of ERK phosphorylation in HPAF-11 pancreatic tumor cells; assay type: cell-based, human; details: HPAF-11 cells, 48 hours, DMEM 10% FBS, western blot (FIG. 3)
Experimental: Cells were treated for 48 hours with indicated concentrations of COMPOUND A in DMEM containing 10% FBS. Phosphorylation of ERK was assessed by western blot using antibodies that detect total and phospho-ERK. Actin detection was used as a loading control for total lysate protein.

[6] = tested on: MKN1 (gastric) tumor cells; assay: CELLTITER-GLO cell viability assay, MKN1; assay type: cell-based, human
Experimental: as §1, §2, §3, §4

[7] = tested on: PC3 (prostate) tumor cells; assay: CELLTITER-GLO cell viability assay, PC3; assay type: cell-based, human; details: COMPOUND A alone, 72 hours, 5% FBS
Experimental: as §1, §2, §3, §4

Row | Structure (SMILES) | oral and oromucosal bioavailability [1] | growth of H727 (lung) tumor cell line as compared to control ([2]; COMPOUND A alone, 72 hours, 5% FBS (FIG. 7)) | effect on gemcitabine growth inhibition of human h727 lung tumor cells ([2]; combination with gemcitabine, 72 hours (FIG. 8)) | growth of HCT116 (colorectal) tumor cell line as compared to control [3] | growth of HPAFII (pancreatic) tumor cell line as compared to control ([4]; COMPOUND A alone) | increase in rate of the cell kill vs Compound A or gemcitabine alone ([4]; HPAF-II, 10 μM COMPOUND A combined with gemcitabine, 72 hours (FIG. 2)) | kill of the pancreatic tumor cells ([4]; HPAF-II, 50 μM, 72 hours, MTT (FIG. 1)) [%] | kill of the tumor cells ([4]; HPAF-II, about 175 μM, 72 hours, MTT (FIG. 1)) | phospho-ERK levels in tumor cells as compared to control [5] | growth of MKN1 (gastric) tumor cell line as compared to control ([6]; COMPOUND A alone, 72 hours, 5% FBS (FIG. 4)) | effect on gemcitabine growth inhibition of human mkn1 gastric tumor cells ([6]; combination with gemcitabine, 72 hours (FIG. 5)) | growth of PC3 (prostate) tumor cell line as compared to control [7]
1 | C=C(C)[C@@H]1CCC(C)=C[C@H]1c1c(O)cc(CCCCC)cc1O [CBD, Cannabidiol] | about 35% | – | – | – | – | – | – | – | – | – | – | –
2 | C=C(C)[C@@H]1CCC(C)=C[C@H]1c1c(O)cc(CCCCC)cc1OC(=O)N[C@@H](C)C(=O)N[C@@H](CCC(=O)O)C(=O)O [COMPOUND A] | – | inhibit the growth | potentiates | inhibit the growth | inhibit the growth | at least 10% | ≥ 50 | more than 80% | effectively decrease phospho-ERK levels | inhibit the growth | synergistic impact | inhibit the growth
